# Experimental data from patent US20230023559A1, “ARYLMETHYLENE HETEROCYCLIC COMPOUNDS AS KV1.3 POTASSIUM SHAKER CHANNEL BLOCKERS” (D. E. Shaw Research, LLC, priority 2019, published 2023).
# Molecular target: T1, Kv1.3 potassium channel (Homo sapiens, UniProt P22001)
# T1 construct: expressed in transfected cells
# Assay: Kv1.3 potassium channel blocker activity, automated whole-cell patch clamp (Patchliner)
# Type: cell-based
# Settings: CHO-K1 cells stably expressing Kv1.3; whole cell current inhibition; read-out: Kv1.3_IC50
# Protocol: The assay described below is used to evaluate the disclosed compound's activities as Kv1.3 potassium channel blockers.
# CHO-K1 cells stably expressing Kv1.3 were grown in DMEM containing 10% heat-inactivated FBS, 1 mM Sodium Pyruvate, 2 mM L-Glutamine and G418 (500 μg/ml).
# All compounds were dissolved in DMSO at 30 mM.
# The currents were evoked by applying 100 ms depolarizing pulses from −90 mV (holding potential) to +40 mV were applied with 0.1 Hz frequency. […] 10 second breaks were used between pulse trains (see Table A below).
# Data were sampled at 10 kHz without filtering. Passive leak currents were subtracted online using a P/4 procedure (HEKA Elektronik Dr. Schulze GmbH). […] Total compound incubation time before the next pulse train was not longer than 10 seconds. Peak current inhibition was observed during compound equilibration.
# T1 sequence (P22001 whole entry): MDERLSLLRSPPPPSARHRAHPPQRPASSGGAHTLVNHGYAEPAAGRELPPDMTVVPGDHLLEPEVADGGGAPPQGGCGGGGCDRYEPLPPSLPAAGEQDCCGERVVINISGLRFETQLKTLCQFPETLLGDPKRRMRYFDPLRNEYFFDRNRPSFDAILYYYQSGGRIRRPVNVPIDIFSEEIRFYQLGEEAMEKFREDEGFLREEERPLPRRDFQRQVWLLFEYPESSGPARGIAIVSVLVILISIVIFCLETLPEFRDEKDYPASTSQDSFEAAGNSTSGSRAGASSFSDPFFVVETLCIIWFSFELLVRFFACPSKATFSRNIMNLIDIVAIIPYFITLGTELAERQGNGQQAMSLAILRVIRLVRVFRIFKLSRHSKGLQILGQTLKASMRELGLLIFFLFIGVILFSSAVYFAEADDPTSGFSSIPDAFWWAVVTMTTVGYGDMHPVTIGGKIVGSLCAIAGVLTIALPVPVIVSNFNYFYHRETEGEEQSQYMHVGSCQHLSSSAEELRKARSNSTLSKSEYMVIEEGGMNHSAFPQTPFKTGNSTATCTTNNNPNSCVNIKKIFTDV
row,IC50,Structure (SMILES)
1,< 10 µM,"CN1CCC([C@H](O)c2cc(Cl)c(Cl)cc2O)CC1 (single isomer, unassigned) [Compound 319]"
2,< 10 µM,"N[C@H](c1cc(Cl)c(Cl)cc1O)C1CCN(C(=O)[C@@H]2CCNC2)CC1 (single isomer, unassigned) [Compound 84]"
3,< 10 µM,"N[C@H](c1cc(Cl)c(Cl)cc1O)C1CCN(C(=O)[C@H]2CCNC2)CC1 [Compound 79, (4-((S)-amino(4,5-dichloro-2-hydroxyphenyl)methyl)piperidin-1-yl)((S)-pyrrolidin-3-yl)methanone]"
4,< 10 µM,"N[C@@H](c1cc(Cl)c(Cl)cc1O)C1CCN(C(=O)[C@@H]2CNC(=O)CO2)CC1 [Compound 229, (6S)-6-[4-[(R)-amino(4,5-dichloro-2-hydroxyphenyl)methyl]piperidine-1-carbonyl]morpholin-3-one Trifluoroacetic Acid]"
5,< 10 µM,"N[C@@H](c1cc(Cl)c(Cl)cc1O)[C@H]1CCC(=O)NC1 (single isomer, unassigned; diastereoisomer 1) [Compound 38, 5-(amino(4,5-dichloro-2-hydroxyphenyl)methyl)piperidin-2-one trifluoroacetic acid diastereoisomer 1]"
6,< 10 µM,"O=C([C@H]1CCNC1)N1CCC[C@H]([C@@H](O)c2c(O)ccc(Cl)c2Cl)CC1 (single isomer, unassigned; isomer 4) [Compound 130]"
7,< 0.5 µM,"O=S(=O)([C@@H]1CCNC1)N1CCC([C@@H](O)c2cc(Cl)c(Cl)cc2O)CC1 (single isomer, unassigned; isomer 4) [Compound 127, 4,5-dichloro-2-(hydroxy(1-(pyrrolidin-3-ylsulfonyl)piperidin-4-yl)methyl)phenol Isomer 4]"
8,< 10 µM,"N[C@@H](c1cc(Cl)ccc1O)C1CCN(C(=O)[C@H](O)CO)CC1 [Compound 295, (2R)-1-[4-[(R)-amino(5-chloro-2-hydroxyphenyl)methyl]piperidin-1-yl]-2,3-dihydroxypropan-1-one]"
9,< 0.5 µM,"CC(C)(N)C(=O)N1CCC([C@@H](N)c2cc(Cl)c(Cl)cc2O)CC1 [Compound 90, (R)-2-amino-1-(4-(amino(4,5-dichloro-2-hydroxyphenyl)methyl)piperidin-1-yl)-2-methylpropan-1-one trifluoroacetic acid]"
10,< 30 µM,"CC(N)(c1cc(Cl)c(Cl)cc1O)C1CCNCC1 (centres unmarked) [Compound 40, 2-[1-amino-1-(piperidin-4-yl)ethyl]-4,5-dichlorophenol]"
11,< 0.5 µM,"N[C@@H](c1cc(Cl)c(Cl)cc1O)C1CCN(C(=O)C2CNC(=O)O2)CC1 (stereo partly drawn) [Compound 261, 5-[4-[(R)-amino(4,5-dichloro-2-hydroxyphenyl)methyl]piperidine-1-carbonyl]-1,3-oxazolidin-2-one trifluoroacetic acid]"
12,> 10 µM,"N[C@H](c1cc(Cl)c(Cl)cc1O)[C@@H]1CCCN(C(=O)[C@H](O)CO)C1 [Compound 330, (2R)-1-[(3R)-3-[(S)-amino(4,5-dichloro-2-hydroxyphenyl)methyl]piperidin-1-yl]-2,3-dihydroxypropan-1-one Trifluoroacetic Acid]"
13,< 0.5 µM,"CO[C@H](CO)C(=O)N1CCC([C@@H](N)c2cc(Cl)c(C)cc2O)CC1 [Compound 250, (2R)-1-[4-[(R)-amino(5-chloro-2-hydroxy-4-methylphenyl)methyl]piperidin-1-yl]-3-hydroxy-2-methoxypropan-1-one trifluoroacetic acid]"
14,< 30 µM,"CC(=O)N1CCC(C(CN)c2cc(Cl)c(Cl)cc2O)CC1 (centres unmarked) [Compound 28, 1-[4-[2-amino-1-(4,5-dichloro-2-hydroxyphenyl)ethyl]piperidin-1-yl]ethan-1-one]"
15,< 10 µM,"NC(c1cc(Cl)c(Cl)cc1O)C1CCN(C(=O)NC2CC2)CC1 (centres unmarked) [Compound 57, 4-(amino(4,5-dichloro-2-hydroxyphenyl)methyl)-N-cyclopropylpiperidine-1-carboxamide]"
16,< 10 µM,"N[C@H](c1cc(Cl)c(Cl)cc1O)C1CCNCC1 (single isomer, unassigned) [Compound 15, Trifluoroacetic Acid]"
17,< 10 µM,"CN1CCC([C@@H](O)c2cc(Cl)c(Cl)cc2O)CC1 (single isomer, unassigned) [Compound 24]"
18,< 30 µM,"CC(C)c1cc(O)c([C@H](N)C2CCN(C(=O)[C@H](O)CO)CC2)cc1Cl [Compound 282, (2R)-1-(4-((R)-amino(5-chloro-2-hydroxy-4-isopropylphenyl)methyl)piperidin-1-yl)-2,3-dihydroxypropan-1-one]"
19,< 10 µM,"O=C([C@H]1CCNC1)N1CCCC(C(O)c2cc(Cl)c(Cl)cc2O)CC1 (stereo partly drawn) [Compound 128, 4,5-dichloro-2-[hydroxy([1-[(3S)-pyrrolidine-3-carbonyl]azepan-4-yl])methyl]phenol]"

row,IC50,Structure (SMILES)
1,< 30 µM,"NC(c1c(O)ccc(Cl)c1Cl)C1CCNCC1 (centres unmarked) [Compound 86, 2-[amino(piperidin-4-yl)methyl]-3,4-dichlorophenol Bis(Trifluoroacetic Acid)]"
2,< 10 µM,"N[C@@H](c1cc(Cl)c(Cl)cc1O)[C@@H]1CCCN(C(=O)[C@H](O)CO)C1 [Compound 329, (2R)-1-[(3R)-3-[(R)-amino(4,5-dichloro-2-hydroxyphenyl)methyl]piperidin-1-yl]-2,3-dihydroxypropan-1-one Trifluoroacetic Acid]"
3,< 10 µM,"CN1C[C@@H](C(=O)N2CCC([C@@H](N)c3cc(Cl)c(Cl)cc3O)CC2)OCC1=O (single isomer, unassigned; isomer 2) [Compound 278]"
4,< 10 µM,"C[C@@H](N)C(=O)N1CCC([C@H](N)c2cc(Cl)c(Cl)cc2O)CC1 (single isomer, unassigned) [Compound 87]"
5,< 10 µM,"NCC(c1cc(Cl)c(Cl)cc1O)C1CCNCC1 (centres unmarked) [Compound 8, 2-[2-amino-1-(piperidin-4-yl)ethyl]-4,5-dichlorophenol]"
6,< 10 µM,"NC(c1cc(Cl)c(Cl)cc1O)[C@@H]1C[C@@H]2CN(C(=O)[C@H](O)CO)C[C@@H]2C1 (stereo partly drawn) [Compound 225, (2R)-1-((3aR,5R,6aS)-5-(amino(4,5-dichloro-2-hydroxyphenyl)methyl)hexahydrocyclopenta[c]pyrrol-2 (1H)-yl)-2,3-dihydroxypropan-1-one]"
7,< 10 µM,"NC(c1cc(Cl)c(Cl)cc1O)C1CCN(Cc2ccccc2)CC1 (centres unmarked) [Compound 41, 2-(amino(1-benzylpiperidin-4-yl)methyl)-4,5-dichlorophenol Trifluoroacetic Acid]"
8,< 10 µM,"CNC(c1cc(Cl)c(Cl)cc1O)C1CCN(C(=O)C(O)CO)CC1 (centres unmarked) [Compound 184, 1-[4-[(4,5-dichloro-2-hydroxyphenyl)(methylamino)methyl]piperidin-1-yl]-2,3-dihydroxypropan-1-one Trifluoroacetic Acid]"
9,< 30 µM,"CC1(C)C[C@@H]([C@H](N)c2cc(Cl)c(Cl)cc2O)CCN1 (single isomer, unassigned; diastereoisomer 1) [Compound 72, 2-(amino(2,2-dimethylpiperidin-4-yl)methyl)-4,5-dichlorophenol Trifluoroacetic Acid Diastereoisomer 1]"
10,< 0.5 µM,"Cc1cc(O)c([C@H](N)C2CCN(C(=O)c3ccc4oc(=O)[nH]c4c3)CC2)cc1Cl [Compound 258, 5-[4-[(R)-amino(5-chloro-2-hydroxy-4-methylphenyl)methyl]piperidine-1-carbonyl]-3H-1,3-benzoxazol-2-one formic acid]"
11,< 10 µM,"N[C@@H](c1cc(Cl)c(Cl)cc1O)C1CCN(C(=O)C2CNCC2(F)F)CC1 (stereo partly drawn) [Compound 113, (4-((R)-amino(4,5-dichloro-2-hydroxyphenyl)methyl)piperidin-1-yl)(4,4-difluoropyrrolidin-3-yl)methanone]"
12,< 10 µM,"OCC(c1cc(Cl)c(Cl)cc1O)C1CCNCC1 (centres unmarked) [Compound 5, 4,5-dichloro-2-[2-hydroxy-1-(piperidin-4-yl)ethyl]phenol]"
13,< 10 µM,NC(=O)CCN1CCC(C(N)c2cc(Cl)c(Cl)cc2O)CC1 (centres unmarked) [Compound 78]
14,< 0.5 µM,"N[C@@H](c1cc(Cl)c(Cl)cc1O)C1CCN(C(=O)c2c[nH]c(=O)c(Cl)c2)CC1 [Compound 255, 5-[4-[(R)-amino(4,5-dichloro-2-hydroxyphenyl)methyl]piperidine-1-carbonyl]-3-chloro-1H-pyridin-2-one]"
15,< 10 µM,"N[C@@H](c1cc(Cl)c(Cl)cc1O)C1CC2CC1CN2C(=O)[C@H](O)CO (stereo partly drawn) [Compound 315, (2R)-1-(5-((R)-amino(4,5-dichloro-2-hydroxyphenyl)methyl)-2-azabicyclo[2.2.1]heptan-2-yl)-2,3-dihydroxypropan-1-one Trifluoroacetic Acid]"
16,< 10 µM,"Cc1ccc([C@H](N)C2CCN(C(=O)[C@H](O)CO)CC2)c(O)c1 [Compound 294, (2R)-1-[4-[(R)-amino(2-hydroxy-4-methylphenyl)methyl]piperidin-1-yl]-2,3-dihydroxypropan-1-one Trifluoroacetic Acid]"
17,< 30 µM,"CC(=O)N[C@@H](c1cc(Cl)c(Cl)cc1O)C1CCNCC1 (single isomer, unassigned) [Compound 17]"
18,< 30 µM,"CN(C)C(c1cc(Cl)c(Cl)cc1O)C1CCN(C(=O)[C@H](O)CO)CC1 (stereo partly drawn) [Compound 193, (2R)-1-[4-[(4,5-dichloro-2-hydroxyphenyl)(dimethylamino)methyl]piperidin-1-yl]-2,3-dihydroxypropan-1-one Trifluoroacetic Acid]"
19,< 30 µM,"CC(=O)N1CCC(C(Nc2ccccn2)c2cc(Cl)c(Cl)cc2O)CC1 (centres unmarked) [Compound 27, 1-[4-[(4,5-dichloro-2-hydroxyphenyl)[(pyridin-2-yl)amino]methyl]piperidin-1-yl]ethan-1-one Trifluoroacetic Acid]"
